Experiments:
gastric acid secretion [1] = test: 13C calcium carbonate breath test, Example 2 (initial 2 g, then 500 mg every 5 minutes over 3 hours); settings: human volunteer; oral 2 g then 500 mg calcium carbonate (10 atom % 13C) every 5 minutes over 3 hours; two experiments; FIG. 4
gastric acid secretion [2] = test: 13C calcium carbonate breath test, Example 1 (250 mg every 15 minutes over 4 hours); settings: human volunteer; oral 250 mg calcium carbonate (10 atom % 13C) every 15 minutes over 4 hours; two experiments; FIG. 1
Protocol: At 10 minute intervals, samples of exhaled (expired) air were obtained from the subject by breathing into a suitable collection vessel such as a test tube. The expired air was subjected to mass spectrometry to measure the ratio of ^13C to ^12C in the exhaled carbon dioxide.
In a second experiment the subject was treated with omeprazole 20 mg daily for two weeks and the experiment repeated twice under otherwise identical conditions.
The subject then did two further experiments again under otherwise identical conditions but now including a daily dosage of 40 mg of omeprazole.

## O=C([O-])[O-].[Ca+2] [^13C labelled calcium carbonate, calcium carbonate]
Gastric acid secretion [1]
  time at which the rise in 13C in exhaled carbon dioxide begins to plateau: about 120 minutes
Gastric acid secretion [2]
  time at which the rise in 13C in exhaled carbon dioxide begins to plateau: about 120 minutes
